From patent US20190030053A1, “COMPOSITION FOR INCREASING EXPRESSION OF PGC-1alpha” (BENEBIOSIS CO., LTD., priority 2016, published 2019)

What was measured:
[1] = test system: 6-OHDA induced SD rat Parkinson's disease models; test: Behavioral ability tests (corner turn and descent, vertical grating device) in Parkinson's disease models; type: in vivo; conditions: 6-OHDA SD rats, oral 0.1 mg/kg/day
Text: In order to investigate the changes in gene expression and behavior improvement by the treatment with SL (3′-SL & 6′-SL) compositions in Parkinson's brain disease models, 13-week-old normal SD rats and Parkinson's brain disease models were purchased from Central Lab Animal (Korea). Water was freely accessible, and a commercially available pellet feed (Dooyeul Biotech, Korea) was given for one week. At 14 weeks of age, the SD rats were divided into four groups (composed of 8 animals per group): Eight 14-week-old male SD rats (normal rats; initial body weight, average 355.6±32.3 g) treated with a normal diet were used for a control group. The 6-OHDA induced SD rat Parkinson's disease models, which were administered with 6-hydroxydopamine (6-OHDA) at 8 weeks of age and supplied at 13 weeks of age, were randomly divided into three different dietary treatment groups below (8 animals per group), and these diets were maintained from 14 weeks of age for 10 weeks (total 32 animals): • Control group: Normal rats fed with a normal diet without SL administration (8 animals) • (Parkinson's disease model) group: Parkinson's disease models fed with a normal diet without SL administration (8 animals) • (Parkinson's disease model+3′-SL) group: Parkinson's disease models treated with 3′-sialyllactose (3′-SL, Sigma) (oral administration of 0.1 mg per kg of rat weight per day) in addition to the normal diet group (8 animals) • (Parkinson's disease model+6′-SL) group: Parkinson's disease models treated with 6′-sialyllactose (6′-SL, Sigma) (oral administration of 0.1 mg per kg of rat weight per day) in addition to the normal diet group (8 animals)
In FIG. 8, the vertical axis represents the corner turn time and the descent time as a result of carrying out behavioral ability tests (corner turn and descent) using a vertical grating device on a control group, (Parkinson's disease model) group, (Parkinson's disease model+3′-SL) group, and (Parkinson's disease model+6′-SL) group. The vertical grating device was in the form of an opened box of 5 cm×55 cm×8 cm, and the frant face was formed of a wiring of 0.8 cm×0.8 cm and the other surfaces were formed of black plexiglass. The bottom was made 5 cm longer for safety. In the test, the […] were placed in an upward direction at a distance of 3 cm from the top of the device, and were allowed to acclimate to the device three times for two days before testing. The above procedure was repeated if the rat could not come down within 60 seconds. The corner turn time is the time it takes for a rat facing upwards to turn downwards, and the descent time is the time obtained by subtracting the corner turn time from the overall test time for which the rat turns at the corner and descends to the bottom.

telomerase [2] = test: Telomerase activity (TRAP) in vivo, aorta of aging stimulation models; set-up: species or system mouse; conditions: oral 0.1 mg/kg/day
Description: In order to investigate the gene expression changes by body parts by the treatment with SL (3′-SL & 6′-SL) compositions in aging stimulation models, 4-week-old male aging stimulation model mice (SAM P1/Sku Slc) were purchased from Central Lab Animal (Korea). Water was freely accessible, and a commercially available pellet feed (Dooyeul Biotech, Korea) was given for one week. […]
In FIGS. 18a and 18b, the telomerase activity was measured using TRAP protocol (Wright et al., 1995). […] The fluorescence of the thus obtained TRAP product was measured using a fluorescent plate reader to quantify telomerase activity. Relative telomerase activity was normalized by the ratio of native […] to sulforhodamine (internal control standard), expressed as a percentage. […]

telomerase [3] = test: Telomerase activity (TRAP) in vitro, MASMs of arteriosclerosis models; type: cell-based, mouse; conditions: MASMs of ApoE−/− control group, cultured 1 day with SL
Description: In FIG. 20, the telomerase activity was measured using TRAP protocol (Wright et al., 1995). In summary, cell pellets were lysed in CHAPS lysis solvent (containing ribonuclease inhibitor), followed by incubation at 4° C. for 30 minutes. Cell extracts ([…]) were TRAPeze reaction mix (telomerase substrate (TS) primer, fluorescent-labeled RP (reverse) primer, control standard template, and sulforhodamine-labeled standard K2 primer). The TS primer was elongated at 30° C. for 30 minutes, and then PCR was performed. The fluorescence of the thus obtained TRAP product was measured using a fluorescent plate reader to quantify telomerase activity. Relative telomerase activity was normalized by the ratio of native […] to sulforhodamine (internal control standard), expressed as a percentage. Fluorescein (M0250) was purchased from Marker Gene Technologies, Inc. H2-dichlorofluorescin diacetate (DCFDA) was purchased from Molecular Probes. MitoSOX™ Red, MitoTracker Green FM, and MitoTracker® Orange CMTMRos (MTO) were purchased from Invitrogen. 10,000× SYBR® Gold dye was purchased from Molecular Probes, Inc. Nuclear/Cytosol fractionation kit (K266-100) was purchased from BioVision. TRAPeze® XL telomerase detection kit (S7707) was purchased from MILLIPORE. Telomere PNA FISH Kit/Cy3 (K5326) was purchased from Dako. […]

With `CC(=O)N[C@H]1[C@H]([C@H](O)[C@H](O)CO)O[C@@](O[C@H]2[C@@H](O)[C@@H](CO)O[C@@H](O[C@H]3[C@H](O)[C@@H](O)C(O)O[C@@H]3CO)[C@@H]2O)(C(=O)O)C[C@@H]1O` (stereo partly drawn) [3′-SL, α-NeuNAc-(2→3)-β-D-Gal-(1→4)-D-Glc] the corner turn time [1] was “relatively low compared with 6′-SL”, the descent time [1] was “relatively low compared with 6′-SL” and the “telomerase activity in aorta sample (in vivo)” value (telomerase [2]) was “increased telomerase activity”. For the same molecule, the “telomerase activity in MASMs (in vitro)” value (telomerase [3]) was “increased telomerase activity”.
With `CC(=O)N[C@H]1[C@H]([C@H](O)[C@H](O)CO)O[C@@](OC[C@H]2O[C@@H](O[C@H]3[C@H](O)[C@@H](O)[C@H](O)O[C@@H]3CO)[C@H](O)[C@@H](O)[C@H]2O)(C(=O)O)C[C@@H]1O` [6′-SL, α-NeuNAc-(2→6)-β-D-Gal-(1→4)-D-Glc] the corner turn time [1] was “almost similar to those in the control group”, the descent time [1] was “almost similar to those in the control group” and the “telomerase activity in aorta sample (in vivo)” value (telomerase [2]) was “increased telomerase activity”. For the same molecule, the “telomerase activity in MASMs (in vitro)” value (telomerase [3]) was “increased telomerase activity”.
